Results published in US7981867B2, “Use of des-aspartate-angiotensin I” (priority 2005, dated 2011).
Read-outs that look alike come from different tables or passages of the source. Marks after values point to notes of the source that are not given here.

Tests used:
diabetic GK rats = assay: Oral glucose tolerance test in diabetic GK rats, oral treatment; assay type: in vivo; details: 400 or 600 nmole/kg oral daily; for hypoglycaemic action (30 min oral glucose tolerance test): 6 weeks of treatment
Method: The experiment was similarly carried as for KKAy mice. Control animals were administered (by gavage) 0.2 mL of water and groups 1 and 2 animals were similarly administered 400 and 600 nmole/kg des-aspartate-angiotensin I in 0.2 mL water, respectively, for a period 8 weeks. Oral glucose tolerance test (determined at 30 min) was carried out after 4 and 6 weeks of treatment. […] Data obtained after 8 week of treatment are given in another figure, FIG. 4.
Diabetic GK rats were divided into three groups, consisting of six animals in each group. Animals in groups 1 and 2 were administered, by gavage, one of the following: 400 or 600 nmole/kg of des-aspartate-angiotensin I in a volume of 0.2 mL water daily for up to 8 weeks. Control animals in group 3 were similarly administered 0.2 mL water. […] Animals were treated for a further 2 weeks and a full oral glucose tolerance test was performed thereafter.

[1] = tested on: Influenza A/Aichi/2/68 virus; assay type: in vivo, BALB/c mice

“des-aspartate-angiotensin I (RVYIHPFHL; Angiotensin-1; UniProt P01019 26-34, looked up, fragment) [endogenous angiotensin peptide derived from angiotensin I by a specific aminopeptidase; purchased from Bachem]” was tested, and the “hypoglycaemic action (30 min oral glucose tolerance test)” value (diabetic GK rats) was “significant hypoglycaemic action was detected”, the “hypoglycaemic action (30 min oral glucose tolerance test)” value (diabetic GK rats; listed as DAA-1) was “exerts hypoglycaemic action” and the “hypoglycaemic action (full oral glucose tolerance test)” value (diabetic GK rats; 8 weeks of treatment) was “significantly expressed”. The “Average Percentage Weight Change” value ([1]; oral 300 nmole/kg/day for 16 days (n = 5), post infection day 0 (taken as 100%)) was 100%, the “Average Percentage Weight Change” value ([1]; oral 300 nmole/kg/day for 16 days (n = 5), post infection day 1) was 102.1 ± 1.5% and the “Average Percentage Weight Change” value ([1]; oral 300 nmole/kg/day for 16 days (n = 5), post infection day 2) was 96.2 ± 2.0%. For the same substance, the “Average Percentage Weight Change” value ([1]; oral 300 nmole/kg/day for 16 days (n = 5), post infection day 3) was 90.8 ± 2.4%, the “Average Percentage Weight Change” value ([1]; oral 300 nmole/kg/day for 16 days (n = 5), post infection day 4) was 85.8 ± 2.9% and the “Average Percentage Weight Change” value ([1]; oral 300 nmole/kg/day for 16 days (n = 5), post infection day 5) was 83.2 ± 3.4%. For the same substance, the “number of animals that died on the day of recording” value ([1]; oral 300 nmole/kg/day for 16 days (n = 5), post infection day 6) was 3, the “Average Percentage Weight Change” value ([1]; oral 300 nmole/kg/day for 16 days (n = 5), post infection day 6, two surviving mice, no SEM) was 94.1% and the “Average Percentage Weight Change” value ([1]; oral 300 nmole/kg/day for 16 days (n = 5), post infection day 7, two surviving mice, no SEM) was 95.7^# %. The “Average Percentage Weight Change” value ([1]; oral 300 nmole/kg/day for 16 days (n = 5), post infection day 8, two surviving mice, no SEM) was 97.9^# %, the “Average Percentage Weight Change” value ([1]; oral 300 nmole/kg/day for 16 days (n = 5), post infection day 9, two surviving mice, no SEM) was 98.7^# % and the “Average Percentage Weight Change” value ([1]; oral 300 nmole/kg/day for 16 days (n = 5), post infection day 10, two surviving mice, no SEM) was 98.1^# %. The “Average Percentage Weight Change” value ([1]; oral 300 nmole/kg/day for 16 days (n = 5), post infection day 11, two surviving mice, no SEM) was 97.4^# %, the “Average Percentage Weight Change” value ([1]; oral 300 nmole/kg/day for 16 days (n = 5), post infection day 12, two surviving mice, no SEM) was 96.9^# % and the “Average Percentage Weight Change” value ([1]; oral 300 nmole/kg/day for 16 days (n = 5), post infection day 13, two surviving mice, no SEM) was 96.8^# %. For the same substance, the “Average Percentage Weight Change” value ([1]; oral 300 nmole/kg/day for 16 days (n = 5), post infection day 14, two surviving mice, no SEM) was 98.2^# %, the “Average Percentage Weight Change” value ([1]; oral 300 nmole/kg/day for 16 days (n = 5), post infection day 15, two surviving mice, no SEM) was 99.6^# % and the “Average Percentage Weight Change” value ([1]; oral 300 nmole/kg/day for 16 days (n = 5), post infection day 16, two surviving mice, no SEM) was 102.4^# %. The “antiviral activity (attenuation of weight loss, survival)” value ([1]; oral 600 nmole/kg administered daily for 8 days) was “Effective antiviral activity”, the “Average Percentage Weight Change” value ([1]; oral 600 nmole/kg/day for 16 days (n = 9), post infection day 0 (taken as 100%)) was 100% and the “Average Percentage Weight Change” value ([1]; oral 600 nmole/kg/day for 16 days (n = 9), post infection day 1) was 98.7 ± 1.3%. For the same substance, the “Average Percentage Weight Change” value ([1]; oral 600 nmole/kg/day for 16 days (n = 9), post infection day 2) was 95.8 ± 1.4%, the “Average Percentage Weight Change” value ([1]; oral 600 nmole/kg/day for 16 days (n = 9), post infection day 3) was 92.0 ± 1.7% and the “Average Percentage Weight Change” value ([1]; oral 600 nmole/kg/day for 16 days (n = 9), post infection day 4) was 92.4 ± 1.8 %. For the same substance, the “Average Percentage Weight Change” value ([1]; oral 600 nmole/kg/day for 16 days (n = 9), post infection day 5) was 94.8 ± 1.8 %, the “Average Percentage Weight Change” value ([1]; oral 600 nmole/kg/day for 16 days (n = 9), post infection day 6) was 95.5 ± 2.1 % and the “Average Percentage Weight Change” value ([1]; oral 600 nmole/kg/day for 16 days (n = 9), post infection day 7) was 97.8 ± 2.6 %. The “Average Percentage Weight Change” value ([1]; oral 600 nmole/kg/day for 16 days (n = 9), post infection day 8) was 96.7 ± 2.9%, the “Average Percentage Weight Change” value ([1]; oral 600 nmole/kg/day for 16 days (n = 9), post infection day 9) was 96.3 ± 3.5% and the “Average Percentage Weight Change” value ([1]; oral 600 nmole/kg/day for 16 days (n = 9), post infection day 10) was 95.6 ± 4.0%. For the same substance, the “Average Percentage Weight Change” value ([1]; oral 600 nmole/kg/day for 16 days (n = 9), post infection day 11) was 95.4 ± 4.5%, the “Average Percentage Weight Change” value ([1]; oral 600 nmole/kg/day for 16 days (n = 9), post infection day 12) was 95.1 ± 5.0% and the “Average Percentage Weight Change” value ([1]; oral 600 nmole/kg/day for 16 days (n = 9), post infection day 13) was 95.5 ± 5.2%. The “Average Percentage Weight Change” value ([1]; oral 600 nmole/kg/day for 16 days (n = 9), post infection day 14) was 99.1 ± 3.4%, the “Average Percentage Weight Change” value ([1]; oral 600 nmole/kg/day for 16 days (n = 9), post infection day 15) was 100.3 ± 4.2% and the “Average Percentage Weight Change” value ([1]; oral 600 nmole/kg/day for 16 days (n = 9), post infection day 16) was 97.0 ± 4.8%. For the same substance, the “Average Percentage Weight Change” value ([1]; oral 1200 nmole/kg given as a single dose on Day 2 (n = 9), post infection day 0 (taken as 100%)) was 100%.
